Measured values reported in patent US20090105278A1, “Selective inhibitors of human corticosteroid syntheses” (Universitat Des Saarlandes, priority 2004, published 2009).
Counter-ions that a name gives are not always drawn. Like-named read-outs stand apart in the source and are kept apart here.

Tests used:
human CYP17 = target: T1, human CYP17 (Homo sapiens, UniProt P05093); assay: Percent inhibition of CYP17 (membrane fraction of E. coli pJL17/OR); assay type: biochemical; details: E. coli which expresses human CYP17, 5 mg/ml protein, progesterone substrate 2.5 μM, inhibitor 2.5 μM; for inhibition at 2.5 µM: read-out: % Inhibition human CYP17
T1 construct: made in house; host or cells: E. coli pJL17/OR (membrane fraction)
T1 sequence (P05093 1-508): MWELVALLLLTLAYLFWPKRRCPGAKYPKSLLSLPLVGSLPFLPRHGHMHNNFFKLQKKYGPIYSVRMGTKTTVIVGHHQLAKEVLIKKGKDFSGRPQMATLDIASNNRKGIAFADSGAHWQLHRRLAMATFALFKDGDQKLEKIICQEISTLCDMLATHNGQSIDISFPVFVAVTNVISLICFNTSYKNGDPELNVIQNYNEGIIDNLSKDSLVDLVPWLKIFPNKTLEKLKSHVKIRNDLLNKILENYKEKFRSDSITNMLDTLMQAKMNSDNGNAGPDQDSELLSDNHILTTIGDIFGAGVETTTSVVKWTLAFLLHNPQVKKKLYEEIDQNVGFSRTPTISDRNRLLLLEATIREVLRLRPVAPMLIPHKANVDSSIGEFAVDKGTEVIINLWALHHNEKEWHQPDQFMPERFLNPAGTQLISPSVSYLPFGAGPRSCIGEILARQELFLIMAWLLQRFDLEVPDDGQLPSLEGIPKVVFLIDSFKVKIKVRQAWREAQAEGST
Method: The recombinantly altered E. coli strain pJL17/OR, in which human CYP17 and rat NADPH-P450-reductase were coexpressed, was grown and stored according to the method of Ehmer et al. (Ehmer, P. B. et al., J. Steroid Biochem. Mol. Biol. 75: 57-63 (2000)). For isolating the membrane fraction, 5 ml of the bacterial cell suspension with an OD578 of 50 was washed with phosphate buffer (0.05 M; pH 7.4; 1 mM MgCl2; 0.1 mM EDTA and 0.1 mM DTT). The bacteria were removed by centrifugation and resuspended in 10 ml of ice cold TES buffer (0.1 M tris-acetate; pH 7.8; 0.5 mM EDTA; 0.5 M sucrose). Four milligrams of lysozyme in 10 ml of ice cold water was added to obtain a final concentration of 0.2 mg/ml. This was followed by incubation for 30 minutes under continued shaking on ice. The spheroblasts were obtained by a renewed centrifugation step at 12,000 g for 10 min and again resuspended in 3 ml of ice cold phosphate buffer (composition see above, additionally 0.5 mM PMSF).
After freezing and thawing, the cells were lysed on ice with an ultrasonic disintegrator. The whole cells and the cell debris were centrifuged off at 3000 g for 7 min. The supernatant was again centrifuged at 50,000 g for 20 min at 4° C. A membrane pellet sedimented and was resuspended in 2 ml of phosphate buffer (composition see above) with […] by means of an Ultra-Turrax mixer. […] Aliquots with an approximate protein concentration of 5 mg/ml were stored at −70° C. until use.
Control incubations were performed in parallel with 5 μl DMSO without urea. The reaction was started by adding 50 μl of a membrane suspension diluted 1 to 5 in phosphate buffer (0.8 to 1 mg of protein per ml). After thoroughly mixing the components, the mixture was incubated at 37° C. for 30 min.
The steroids were extracted with 1 ml of EtOAc. […] After the centrifugation, 800 μl of the organic phase was removed, placed into a new vessel and evaporated to dryness. The samples were dissolved in 50 μl of a water-methanol mixture (1:1) and analyzed by HPLC. The substrate conversion was calculated from the ratio of the areas of the product peaks (17α-hydroxyprogesterone and 16α-hydroxyprogesterone) to that of the substrate peak. The activity of the inhibitors was calculated from the reduced substrate conversion after the addition of inhibitors in accordance with the following formula: […]

human CYP11B1 = target: T2, human CYP11B1 (Homo sapiens, UniProt P15538); assay: V79 MZh 11B1 cells inhibition test; assay type: cell-based
T2 construct: expressed in transfected cells; host or cells: V79 MZh11B1 (Chinese hamster lung fibroblasts)
T2 sequence (P15538 25-503): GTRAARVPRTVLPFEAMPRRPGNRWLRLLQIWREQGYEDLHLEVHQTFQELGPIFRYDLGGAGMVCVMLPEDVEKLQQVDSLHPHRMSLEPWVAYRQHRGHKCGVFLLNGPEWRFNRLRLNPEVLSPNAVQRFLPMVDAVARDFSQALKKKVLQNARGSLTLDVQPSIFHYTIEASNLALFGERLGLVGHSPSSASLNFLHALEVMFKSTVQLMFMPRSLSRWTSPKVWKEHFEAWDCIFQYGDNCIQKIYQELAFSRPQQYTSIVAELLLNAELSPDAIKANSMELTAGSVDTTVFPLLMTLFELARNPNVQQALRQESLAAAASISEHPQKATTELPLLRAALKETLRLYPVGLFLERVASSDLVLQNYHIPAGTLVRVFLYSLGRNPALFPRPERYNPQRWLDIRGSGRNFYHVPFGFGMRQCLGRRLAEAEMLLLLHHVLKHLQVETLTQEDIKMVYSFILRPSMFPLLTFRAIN
Method: Both cell lines were cultured in DMEM^+ containing […] and the antibiotics penicillin and streptomycin (10%) for protection from bacterial contamination. The cells were passaged every 2-3 days after treatment with trypsin/EDTA because the doubling rate was 1-2 days depending on the number of cells. […] When there was further need, freshly thawed cells were employed.
Thereafter, the plate was stored at 37° C. and […] in a CO2 incubator. […] Controls without inhibitor were treated in the same way. The enzyme reactions were quenched by extracting the supernatant with 500 μl of EtOAc. The samples were centrifuged (10,000 g, 2 min), the solvent was removed and evaporated.
It was calculated by determining the percent inhibition for at least 3 different inhibitor concentrations, which must all be in the linear range of the sigmoidal IC50 curve (log C/% inhibition).
The calculation was effected by linear regression. The values determined were used only if they formed a straight line with a reliability of […].
The plate was developed twice with the mobile solvent chloroform:methanol:water (300:20:1). Unlabeled 11-deoxycorticosterone and corticosterone were applied as a reference for the CYP11B1 reaction. For the CYP11B2 reaction, 11-deoxycorticosterone, corticosterone, 18-hydroxycorticosterone and aldosterone were used as references. The detection of the unlabeled references was effected at 260 nm. Subsequently, imaging plates (BAS MS2340, for ^14C samples, Raytest, Straubenhardt, Germany) were exposed to the HPTLC plates for 48 h. The imaging plates were scanned with the phosphoimager system Fuji FLA 3000 (Raytest, Straubenhardt, Germany), and the steroids were quantified.

[1] = hamster fibroblasts which express human CYP11B1, deoxycorticosterone substrate 100 nM, read-out: IC50 V79 11B1 hCYP11B1

Row | Molecule | % Inhibition human CYP17 (human CYP17) [%] | IC50 (human CYP11B1; [1]) [nM] | inhibition at 2.5 µM (human CYP17) [%] | IC50 (human CYP11B1; Table 7: preincubation 1 h, DOC 100 nM, incubation 140 min, read-out: V79MZh11B1 CYP11B1 DOC [IC50]) [nM]
1 | 5-[(E)-(6-Chloro-3,4-dihydronaphth-1(2H)-ylidene)methyl]-1H-imidazolium chloride [Compound 46a] | 24 |  |  | 
2 | 5-[(Z)-3,4-Dihydronaphth-1(2H)-ylidenemethyl]-1H-imidazolium oxalate [Compound 41b] | 13 |  |  | 
3 | 5-[(Z)-(5-Bromo-2,3-dihydro-1H-indene-1-ylidene)methyl]-1H-imidazolium oxalate [Compound 49b] | 15 | 23.5 |  | 
4 | 5-[(Z)-(5-Chloro-2,3-dihydro-1H-indene-1-ylidene)methyl]-1H-imidazolium oxalate [Compound 48b] | 26 |  |  | 
5 | C(=C1/CCc2ccccc21)/c1cccnc1 [Compound 1a, 3-[(E)-2,3-Dihydro-1H-indane-1-ylidenemethyl]pyridine Hydrochloride] |  | 888 | 14 | 
6 | C(=C1\CCc2ccccc21)/c1cccnc1.Cl [Compound 1b, 3-[(Z)-2,3-Dihydro-1H-indane-1-ylidenemethyl]pyridine Hydrochloride] | 33 | 86.6 |  | 
7 | C(=C1\CCc2ccccc21)/c1ccncc1 [Compound 2b, 4-[(Z)-2,3-Dihydro-1H-indane-1-ylidenemethyl]pyridine oxalate] |  | 1320 | 18 | 
8 | Fc1ccc2c(c1)CC/C2=C\c1cccnc1 [Compound 5a, 3-[(E)-(5-Fluoro-2,3-dihydro-1H-indane-1-ylidene)methyl]pyridine Hydrochloride] |  | 311 | 17 | 
9 | Fc1ccc2c(c1)CC/C2=C/c1cccnc1 [Compound 5b, 3-[(Z)-(5-Fluoro-2,3-dihydro-1H-indane-1-ylidene)methyl]pyridine Hydrochloride] |  | 125 | 16 | 125
10 | Fc1ccc2c(c1)CC/C2=C\c1ccncc1 [Compound 6a, 4-[(E)-(5-Fluoro-2,3-dihydro-1H-indane-1-ylidene)methyl]pyridine Hydrochloride] |  | 380 | 15 | 
11 | Fc1ccc2c(c1)CC/C2=C/c1ccncc1 [Compound 6b, 4-[(Z)-(5-Fluoro-2,3-dihydro-1H-indane-1-ylidene)methyl]pyridine Hydrochloride] |  | 257 | 29 | 
12 | Clc1ccc2c(c1)CC/C2=C\c1cccnc1 [Compound 7a, 3-[(E)-(5-Chloro-2.3-dihydro-1H-indane-1-ylidene)methyl]pyridine Hydrochloride] |  | 1470 | 26 | 
13 | Clc1ccc2c(c1)CC/C2=C/c1cccnc1 [Compound 7b, 3-[(Z)-(5-Chloro-2,3-dihydro-1H-indane-1-ylidene)methyl]pyridine Hydrochloride] |  | 270 | 28 | 
14 | Clc1ccc2c(c1)CC/C2=C\c1ccncc1 [Compound 8a, 4-[(E)-(5-Chloro-2,3-dihydro-1H-indane-1-ylidene)methyl]pyridine Hydrochloride] |  | 243 | 18 | 
15 | Brc1ccc2c(c1)CC/C2=C\c1cccnc1 [Compound 9a, 3-[(E)-(5-Bromo-2,3-dihydro-1H-indane-1-ylidene)methyl]pyridine Hydrochloride] |  | 1940 | 16 | 
16 | Brc1ccc2c(c1)CC/C2=C/c1cccnc1 [Compound 9b, 3-[(Z)-(5-Bromo-2,3-dihydro-1H-indane-1-ylidene)methyl]pyridine Hydrochloride] |  | 320 | 24 | 
17 | Brc1ccc2c(c1)CC/C2=C\c1ccncc1 [Compound 10a, 4-[(E)-(5-Bromo-2,3-dihydro-1H-indane-1-ylidene)methyl]pyridine Hydrochloride] |  | 948 | 24 | 
18 | COc1ccc2c(c1)CC/C2=C\c1cccnc1 [Compound 11a, 3-[(E)-(5-Methoxy-2,3-dihydro-1H-indane-1-ylidene)methyl]pyridine Hydrochloride] |  | 1450 | 36 | 
19 | COc1ccc2c(c1)CC/C2=C/c1cccnc1 [Compound 11b, 3-[(Z)-(5-Methoxy-2,3-dihydro-1H-indane-1-ylidene)methyl]pyridine Hydrochloride] |  | 790 | 49 | 
20 | COc1ccc2c(c1)CCC/C2=C\c1cccnc1 [Compound 13a, 3-[(E)-(6-Methoxy-3,4-dihydronaphthalene-1(2H)-ylidene)methyl]pyridine Hydrochloride] |  | 903 | 20 | 
21 | CCOc1ccc2c(c1)CC/C2=C\c1cccnc1 [Compound 19a, 3-[(E)-(5-Ethoxy-2,3-dihydro-1H-indane-1-ylidene)methyl]pyridine Hydrochloride] |  | 2370 | 13 | 
22 | CCOc1ccc2c(c1)CC/C2=C/c1cccnc1 [Compound 19b, 3-[(Z)-(5-Ethoxy-2,3-dihydro-1H-indane-1-ylidene)methyl]pyridine Hydrochloride] |  | 2700 | 6 | 
23 | Cc1cccc2c1CC/C2=C\c1cccnc1 [Compound 23a, 3-[(E)-(4-Methyl-2,3-dihydro-1H-indane-1-ylidene)methyl]pyridine Hydrochloride] |  | 763 | 40 | 
24 | Fc1cccc2c1CC/C2=C\c1cccnc1 [Compound 24a, 3-[(E)-(4-Fluoro-2,3-dihydro-1H-indane-1-ylidene)methyl]pyridine Hydrochloride] |  | 774 | 42 | 
